From US12279617B2, “Agricultural and horticultural chemical agent containing new imidazopyridine-2-carboxamide derivative as active ingredient” (AGRO-KANESHO CO., LTD., priority 2019, dated 2025)

Experiments:
Type in all cases: in vivo
[1] = tested on: Plutella xylostella; assay: Insecticidal effect test for Plutella xylostella of Chinese cabbage; details: 500 ppm emulsion agent sprayed on Chinese cabbage seedlings; 3rd instar larvae; 5 days after insect release; 25° C.; agony insects counted as dead
Protocol: A sufficient amount of a water diluted solution of an emulsion agent (500 ppm) prepared as in Formulation Example 1 was sprayed with an air brush to the leaves of Chinese cabbage seedlings planted in pots raised for 2 weeks after sowing. The liquid agent was air dried, and five 3rd instar larvae of Plutella xylostella were then inoculated per pot and were kept in a thermostat chamber of 25° C. Five days after the insect release, the life-and-death and the agony of the larvae were investigated, and the insecticidal rate (%) when agony insects were included in dead insects was determined. Incidentally, the test was carried out by using one seedling in each ward. Insecticidal rate (%)=[number of dead larvae)/(number of test larvae)]×100

[2] = tested on: Spodoptera litura (Fabricius); assay: Larvicide test for Spodoptera litura (Fabricius); details: 500 ppm emulsion agent; artificial feed immersed about 60 seconds; 7 days after insect release; 25° C.; agony insects counted as dead
Excerpt: A water diluted solution of an emulsion agent (500 ppm) prepared as in Formulation Example 1 was put in a 120-mL polyethylene cup, and artificial feed Insecta LF (Nosan Corporation, diameter: 5 cm) sliced into 5 mm thickness and cut into ¼ was immersed in the polyethylene cup for about 60 seconds. After the immersion treatment, the resultant artificial feed piece was put in another 120-mL polyethylene cup (diameter: 8 cm, height: 4 cm) with filter paper (diameter: 55 mm) on the bottom together with test insects, and the cup was covered with a lid and was then kept in a thermostat chamber of 25° C. Seven days after the insect release, the life-and-death and the agony of the larvae were investigated, and the insecticidal rate (%) when agony insects were included in dead insects was determined. Incidentally, the test was carried out by using one cup in each ward. Insecticidal rate (%)=[number of dead larvae)/(number of test larvae)]×100

[3] = tested on: Aculops lycopersici Massee; assay: Adult-killing test for Aculops lycopersici Massee (tomato rust mites); details: 500 ppm emulsion agent sprayed 2.0 mL per cup on tomato leaf disks; 3 days after treatment; 25° C.; scored on four scales (100, 80, 50, 0)
Excerpt: A lid provided with a hole (diameter: about 5 mm) at the center was put on a 430-mL polyethylene cup containing water. Circular filter paper with a diameter of 6.5 cm which was cut such that a strip-shaped filter paper piece having a width of about 5 mm was formed was put on the lid, and the filter paper piece was inserted into the hole of the lid so that the tip of the piece extends downward from the hole and immersed in the water in the cup. Furthermore, absorbent cotton was put on the filter paper such that the water in the cup was always supplied to the absorbent cotton. Three leaf disks (1 cm×1 cm) of leaflets of tomato in the early stage of true leaf development were put on the absorbent cotton such that the back of the leaves in the disk form was on top, and small pieces of a leaf parasitized by tomato rust mites were inoculated on the leaves in the disk form. After 24 hours from the inoculation, the small pieces were removed, and the cup was placed in an acrylic cylinder having a height of 50 cm and a diameter of 10 cm. A water diluted solution of an emulsion agent (500 ppm) prepared as in Formulation Example 1 was sprayed in an amount of 2.0 mL per cup using an air brush. After the spraying, the cup was kept in a thermostat chamber of 25° C. Three days after the treatment, the control rate was evaluated on four scales: 100 (control rate: 100%), 80 (control rate: 99% to 80%), 50 (control rate: 79% to 50%), and 0 (control rate: less than 50%), and the next-generation density suppression rate was calculated based on the results by the following equation. Incidentally, the test was carried out by using one cup in each ward. Control rate=(A×100+B×80+C×50)/(A+B+C+D) A: the number of disks for 100, B: the number for disks of 80, C: the number for disks of 50, D: the number of disks for 0.

SMILES | insecticidal rate [1] [%] | insecticidal rate [2] [%] | control rate [3] [%]
CCSc1c(C(=O)N(COC)c2ccc(C(F)(F)F)cc2)nc2ccc(C(F)(F)F)cn12 [A-13, N-(methoxymethyl)-N-{4-(trifluoromethyl)phenyl}-3-(ethylthio)-6-(trifluoromethyl)imidazo[1,2-a]pyridine-2-carboxamide] | 100 | 100 | 
CC[S+]([O-])c1c(C(=O)N(COC)c2ccc(C(F)(F)F)cc2)nc2ccc(C(F)(F)F)cn12 (stereo not drawn) [A-14, N-(methoxymethyl)-N-{4-(trifluoromethyl)phenyl}-3-(ethylsulfinyl)-6-(trifluoromethyl)imidazo[1,2-a]pyridine-2-carboxamide] | 100 | 100 | 100
CCS(=O)(=O)c1c(C(=O)N(COC)c2ccc(C(F)(F)F)cc2)nc2ccc(C(F)(F)F)cn12 [A-15, N-(methoxymethyl)-N-{4-(trifluoromethyl)phenyl}-3-(ethylsulfonyl)-6-(trifluoromethyl)imidazo[1,2-a]pyridine-2-carboxamide] | 100 | 100 | 100
CCOCN(C(=O)c1nc2cccc(C(F)(F)F)n2c1S(=O)(=O)CC)c1ccc(C(F)(F)F)cc1 [A-18] | 100 | 100 | 
CCOCN(C(=O)c1nc2cc(C(F)(F)F)ccn2c1[S+]([O-])CC)c1ccc(C(F)(F)F)cc1 (stereo not drawn) [A-20] | 100 | 100 | 
CCOCN(C(=O)c1nc2cc(C(F)(F)F)ccn2c1S(=O)(=O)CC)c1ccc(C(F)(F)F)cc1 [A-21] | 100 | 100 | 
CCOCN(C(=O)c1nc2c(C(F)(F)F)cccn2c1SCC)c1ccc(C(F)(F)F)cc1 [A-22] | 100 | 100 | 
CCOCN(C(=O)c1nc2ccc(Cl)cn2c1SCC)c1ccc(C(F)(F)F)cc1 [A-25] | 100 | 100 | 100
CCOCN(C(=O)c1nc2ccc(Cl)cn2c1S(=O)(=O)CC)c1ccc(C(F)(F)F)cc1 [A-27] | 100 | 100 | 100
CCOCN(C(=O)c1nc2ccc(C(F)(F)F)cn2c1SCC)c1ccccc1C(F)(F)F [A-31] | 100 |  | 
CCOCN(C(=O)c1nc2ccc(C(F)(F)F)cn2c1S(=O)(=O)CC)c1ccccc1C(F)(F)F [A-33] | 100 | 100 | 100
CCOCN(C(=O)c1nc2ccc(C(F)(F)F)cn2c1SCC)c1ccc(SC(F)(F)F)cc1 [A-70] | 100 | 100 | 100
CCOCN(C(=O)c1nc2ccc(C(F)(F)F)cn2c1S(=O)(=O)CC)c1ccc(SC(F)(F)F)cc1 [A-72] | 100 | 100 | 100
CCOCN(C(=O)c1nc2ccc(C(F)(F)F)cn2c1S(=O)(=O)CC)c1ccc([S+]([O-])C(F)(F)F)cc1 (stereo not drawn) [A-75] | 100 | 100 | 100
CCOCN(C(=O)c1nc2ccc(C(F)(F)F)cn2c1SCC)c1ccc(C(F)(F)F)nc1 [A-91] | 100 | 100 | 
CCOCN(C(=O)c1nc2ccc(C(F)(F)F)cn2c1S(=O)(=O)CC)c1ccc(C(F)(F)F)cn1 [A-96] | 100 | 100 | 100
CCS(=O)(=O)c1c(C(=O)N(CSC)c2ccc(C(F)(F)F)cc2)nc2ccc(C(F)(F)F)cn12 [A-99] | 100 | 100 | 
CCS(=O)(=O)c1c(C(=O)N(CS(C)(=O)=O)c2ccc(C(F)(F)F)cc2)nc2ccc(C(F)(F)F)cn12 [A-102] | 100 | 100 | 100
CCS(=O)(=O)c1c(C(=O)N(C)c2ccc(C(F)(F)F)cc2)nc2ccc(C(F)(F)F)cn12 [Compound A, reference compound] | 90 | 90 | 100
CCOCN(C(=O)Cc1ccncc1S(=O)(=O)CC)c1ccc(C(F)(F)F)cc1 [Compound B, reference compound] | 50 | 0 | 100
